# In publication PMC6684654 (Nature Communications, 2019):
# What was measured:
# Experiment in all cases: Antibiotic susceptibility (MIC), automated identification system
# Format in all cases: cell-based
# E. coli ATCC25922 = settings: Supplementary Table 1; for MIC: Escherichia coli, ATCC25922
# From the text: (§1) Clinical isolate strains were identified and screened by the Phoenix 100 automated bacterial identification system to rapidly detect antimicrobial resistance. Total DNA was extracted by the TIANamp Bacteria DNA Kit according to the manufacturer’s protocol. The presence of blaNDM-1 was confirmed using a diagnostic kit for NDM-1 (Puruikang Bio Inc., Shenzhen, China) based on fluorescent quantitative polymerase chain reaction assay. According to the instruction, Ct values of less than 37 were considered positive.
# NDM-1 E. coli XJ141026 = settings: Supplementary Table 1; for MIC: Escherichia coli
# From the text: as §1
# NDM-1 E. coli XJ141047 = settings: Supplementary Table 1; for MIC: Escherichia coli
# From the text: as §1
# [1] = tested on: NDM-1 K. pneumoniae XJ155020; settings: Supplementary Table 2; for MIC: Klebsiella pneumoniae
# From the text: as §1
# NDM-1 E. coli XJ141015 = settings: Supplementary Table 1; for MIC: Escherichia coli
# From the text: as §1
# K. pneumoniae ATCC13883 = settings: Supplementary Table 2; for MIC: Klebsiella pneumoniae, ATCC13883
# From the text: as §1
# [2] = tested on: NDM-1 K. pneumoniae XJ155019; settings: Supplementary Table 2; for MIC: Klebsiella pneumoniae
# From the text: as §1
# [3] = tested on: NDM-1 K. pneumoniae XJ155017; settings: Supplementary Table 2; for MIC: Klebsiella pneumoniae
# From the text: as §1
# [4] = tested on: NDM-1 K. pneumoniae XJ155018; settings: Supplementary Table 2; for MIC: Klebsiella pneumoniae
# From the text: as §1
MIC (E. coli ATCC25922) [µg/mL],susceptibility class (MIC) (E. coli ATCC25922),MIC (NDM-1 E. coli XJ141026) [µg/mL],susceptibility class (MIC) (NDM-1 E. coli XJ141026),MIC (NDM-1 E. coli XJ141047) [µg/mL],susceptibility class (MIC) (NDM-1 E. coli XJ141047),MIC [1] [µg/mL],susceptibility class (MIC) [1],MIC (NDM-1 E. coli XJ141015) [µg/mL],susceptibility class (MIC) (NDM-1 E. coli XJ141015),MIC (K. pneumoniae ATCC13883) [µg/mL],susceptibility class (MIC) (K. pneumoniae ATCC13883),MIC [2] [µg/mL],susceptibility class (MIC) [2],MIC [3] [µg/mL],susceptibility class (MIC) [3],MIC [4] [µg/mL],susceptibility class (MIC) [4],Compound
≤ 4,S,> 16,R,> 16,R,> 16,R,> 16,R,16,R,> 16,R,> 16,R,> 16,R,CC1(C)S[C@@H]2[C@H](NC(=O)[C@H](N)c3ccccc3)C(=O)N2[C@H]1C(=O)O [Ampicillin]
≤ 8,S,≤ 8,S,≤ 8,S,≤ 8,S,≤ 8,S,≤ 8,S,≤ 8,S,≤ 8,S,≤ 8,S,NCC[C@H](O)C(=O)N[C@@H]1C[C@H](N)[C@@H](O[C@H]2O[C@H](CN)[C@@H](O)[C@H](O)[C@H]2O)[C@H](O)[C@H]1O[C@H]1O[C@H](CO)[C@@H](O)[C@H](N)[C@H]1O [Amikacin]
≤ 2,S,> 8,R,> 8,R,≤ 2,S,≤ 2,S,≤ 2,S,≤ 2,S,≤ 2,S,≤ 2,S,CNC(C)C1CCC(N)C(OC2C(N)CC(N)C(OC3OCC(C)(O)C(NC)C3O)C2O)O1 (centres unmarked) [Gentamicin]
≤ 1,S,> 8,R,≤ 1,S,> 8,R,> 8,R,≤ 1,S,> 8,R,–,–,–,–,C[C@H]1COc2c(N3CCN(C)CC3)c(F)cc3c(=O)c(C(=O)O)cn1c23 [Levofloxacin]
≤ 2,S,> 16,R,> 16,R,> 16,R,> 16,R,≤ 2,S,> 16,R,> 16,R,> 16,R,CO/N=C(\C(=O)N[C@@H]1C(=O)N2C(C(=O)[O-])=C(C[N+]3(C)CCCC3)CS[C@H]12)c1csc(N)n1 [Cefepime]
≤ 1,S,> 4,R,≤ 1,S,> 4,R,> 4,R,≤ 1,S,> 4,R,> 4,R,> 4,R,COc1c(N2C[C@@H]3CCCN[C@@H]3C2)c(F)cc2c(=O)c(C(=O)O)cn(C3CC3)c12 [Moxifloxacin]
